Test results published in BindingDB's records for PubMed 9226416 (University of Sydney, 1997).

What was measured:
[1] = target: T1, Gamma-aminobutyric acid receptor subunit alpha-3 (Homo sapiens, UniProt P34903)
T1 sequence (P34903 whole entry): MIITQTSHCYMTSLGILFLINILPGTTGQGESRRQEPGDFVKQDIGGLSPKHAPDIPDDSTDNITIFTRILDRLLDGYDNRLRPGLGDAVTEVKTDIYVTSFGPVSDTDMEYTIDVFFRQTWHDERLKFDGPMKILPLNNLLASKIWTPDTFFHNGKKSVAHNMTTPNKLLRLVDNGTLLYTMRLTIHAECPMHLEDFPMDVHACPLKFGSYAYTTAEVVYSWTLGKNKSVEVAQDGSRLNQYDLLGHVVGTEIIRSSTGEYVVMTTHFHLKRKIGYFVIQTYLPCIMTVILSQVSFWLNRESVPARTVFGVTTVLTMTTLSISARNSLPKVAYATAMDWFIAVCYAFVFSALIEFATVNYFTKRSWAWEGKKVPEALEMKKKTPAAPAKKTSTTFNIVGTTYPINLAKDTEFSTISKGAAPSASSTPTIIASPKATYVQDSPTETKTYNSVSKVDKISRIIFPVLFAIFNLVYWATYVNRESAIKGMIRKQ

[2] = target: Gamma-aminobutyric acid (GABA) B receptor 1 (Rattus norvegicus, UniProt Q6MFX8)
Chain of Gamma-aminobutyric acid (GABA) B receptor 1 (Q6MFX8 whole entry): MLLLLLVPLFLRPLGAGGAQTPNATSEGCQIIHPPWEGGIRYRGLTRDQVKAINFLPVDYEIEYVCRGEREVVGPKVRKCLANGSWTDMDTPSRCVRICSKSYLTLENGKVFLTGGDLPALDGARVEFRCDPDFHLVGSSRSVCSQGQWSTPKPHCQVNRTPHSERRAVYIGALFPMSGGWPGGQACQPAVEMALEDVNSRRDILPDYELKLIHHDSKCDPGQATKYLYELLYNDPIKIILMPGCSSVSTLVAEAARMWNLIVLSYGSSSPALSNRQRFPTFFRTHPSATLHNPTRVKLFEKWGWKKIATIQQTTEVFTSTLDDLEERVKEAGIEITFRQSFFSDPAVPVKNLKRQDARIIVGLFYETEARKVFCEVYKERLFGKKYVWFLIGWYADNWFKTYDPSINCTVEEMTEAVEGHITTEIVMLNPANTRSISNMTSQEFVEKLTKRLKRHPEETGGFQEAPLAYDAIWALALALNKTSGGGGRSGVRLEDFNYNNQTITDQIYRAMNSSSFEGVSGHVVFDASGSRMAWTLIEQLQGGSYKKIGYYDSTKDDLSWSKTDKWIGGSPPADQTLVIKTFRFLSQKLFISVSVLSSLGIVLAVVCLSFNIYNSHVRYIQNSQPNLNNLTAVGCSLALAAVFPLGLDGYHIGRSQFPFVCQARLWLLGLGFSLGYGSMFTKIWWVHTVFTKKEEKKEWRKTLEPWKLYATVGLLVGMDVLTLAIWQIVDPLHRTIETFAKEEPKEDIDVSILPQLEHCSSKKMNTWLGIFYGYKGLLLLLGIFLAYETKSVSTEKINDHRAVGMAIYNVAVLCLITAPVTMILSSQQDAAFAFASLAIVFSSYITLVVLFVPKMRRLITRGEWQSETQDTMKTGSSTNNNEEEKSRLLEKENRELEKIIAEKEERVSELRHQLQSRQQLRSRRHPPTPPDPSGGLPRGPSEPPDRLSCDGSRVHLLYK

| Structure (SMILES) | Ki [1] [nM] | Ki [2] [nM] |
| --- | --- | --- |
| CP(=O)(O)CCCN [CGP35024] | 750 | – |
| CCCCP(=O)(O)CCCN [CGP36742] | > 10000 | – |
| NCCC[PH](=O)O [(3-aminopropyl)phosphinic acid] | 2470 | 5 |
